Laboratory results as given in patent publication US9474749B2 (priority 2004, dated 2016).
“And” between values parts separate entries of the source, which are not always exact repeats. Equal entries are not always repeated. Where two headings read alike, the source gives them in different places.

How the values were obtained:
BACE-1 = BACE-1 mRNA expression in HTB-11 cells (RT-PCR); settings: 24 hours
Method: (§9) SH-SY5Y human neuroblastoma cells (ATCC, USA) were cultured in Dulbecco's modified Eagle's medium/Ham's nutrient mixture (DMEM-F12) (Invitrogen, USA), and HTB-11 human neuroblastoma cells (ATCC, USA) were cultured in Minimum Essential Medium Alpha Medium (MEM-α) (Invitrogen, USA). […] All treatments were performed under a sterile hood.
(§10) After the treatment time-period, cells were harvested, and total RNA was extracted using RNeasy RNA Isolation kit (Qiagen) following the manufacturer's procedures. Total RNA yield was determined using a Spectrophotometer RNA/DNA calculator (Pharmacia Biotech). Total RNA concentration was then standardized for semi-quantitative RT-PCR, which was carried out in a Geneamp Thermocycler PCR System 9700 (P.E. Applied Biosystems). […] PCR products and a 100 bp DNA marker were then loaded in a 2% agarose gel stained with ethidium bromide. Gel electrophoresis was performed using a power-supply (E-C Apparatus Corp.) set at 110V with constant amperage for 1.5 hours. Gels were then photographed using a Gel Documentation System (UVP), and bands analyzed using Gel-Pro Analyzer (MediaCybernetics) on a P4 Windows machine.

Mytilus animals = test: TNF-α-induced death of animals; settings: morphine 10^−7 M daily for four days pre-treatment
Method: 100 healthy Mytilus animals were treated with 10 U/mL of TNF-α by injection.

[1] = system: SK-N-SH neuroblastoma cell line; test: Cellular morphology (Form Factor) of neuroblastoma cells; format: cell-based, human; settings: concomitant morphine and IFNγ
Method: Cell viability was determined via Trypan blue exclusion. An inverted light microscope (Nikon) with a phase-contrast filter was used to observe the cells. Pictures of the cells were taken via a digital camera (Optronix) attached to the microscope ocular. Images were uploaded onto ImagePro Plus Software (Applied Biosystems), where cell viability was calculated based on both the number of cells covering the field and the cells that present as dead from the stain. In addition, ImagePro Plus was used for determining cellular morphology. The area and perimeter were found and used in the formula (4π*Area)/(Perimeter)^2, resulting in a value between 0 (a straight line) and 1 (a perfect circle).

Ubiquitin = test: Free ubiquitin (Western blot); format: cell-based, human
Method: (§1) To determine protein concentrations, protein was harvested using the following buffer: 20 mM Hepes (Sigma), 100 mM NaCl (Fisher), 10 mM NaF (Sigma), 1% Triton X-100 (Sigma), 1 mM sodium orthovanadate (Sigma), 10 mM EDTA (Sigma), pH 7.4, 0.1% protease inhibitor cocktail (Sigma), and ddH2O. Homogenized samples were spun in an ultracentrifuge at 10,000G for 20 minutes at 4° C. Concentration was determined via the Bradford assay (Bio-Rad) using bovine serum albumin (BSA, Sigma) for standard curve. To eliminate any potential pipetting error, samples and standards were read in triplicate.
(§2) Western blotting was performed as follows. SDS-polyacrylamide gels (12% for separation and 5% for stacking) were made using the Mini Trans-Blot Cell (Bio-Rad). Based on the concentrations from the protein concentration determination assay, the proteins were mixed with 2× Protein Loading Buffer (0.2M DTT) for a final volume of 24 μL. Tris-Glycine Electrophoresis Buffer (1×) was used in SDS-PAGE, and proteins were separated at constant amperage (35 mA).
(§3) Subsequent protein transfer to a nitrocellulose membrane involved use of the Mini Trans-Blot Cell apparatus run at constant voltage (100V) for 40 minutes. […]
(§4) Substrate (Pierce) was administered as a means of stimulating chemiluminescence. Blots were developed and subsequently analyzed for relative band intensity using Gel-Pro software (Applied Biosystems).

BACE-2 = BACE-2 mRNA expression in HTB-11 cells (RT-PCR); settings: morphine, 24 hours
Method: as §9, §10

human saphenous veins = test: NO release from human saphenous veins; settings: 2×10^−7 M morphine
20S proteasome = test: Activity of the whole 20S proteasome (fluorometric); format: cell-based, human
Method: (§5) Proteasome function assays were performed in an effort to examine the modulation in levels of protein degradation. Fluorometric assays were performed for both the chymotrypsin activity of the 26S proteasome as well as activity of the whole 20S proteasome using procedures adapted from Kotamraju et al. (Proc. Natl. Acad. Sci. USA, 100:10653-8 (2003)). Excitation at 365 nm and emission at 460 nM of the fluorogenic compound, […] (AMC), were measured using a Spectrofluoroscence Detector (McPherson).

immunocytes = test: LPS activation of hemolymph cells from morphine pre-treated animals; settings: single pre-treatment, morphine 10^−6 M, LPS 1 μg/mL
[2] = system: Immunoproteasome LMP7 (β5i) Subunit; test: LMP7 polypeptide expression (Western blot); format: cell-based, human; settings: 36 and 48 hours
Method: as §1, §2, §3, §4

pedal ganglia [3] = test: NO release from excised pedal ganglia (NO-selective microprobe); format: cell-based, Mytilus edulis
Method: For the nitric oxide assay, ten pedal ganglia (per determination) dissected from M. edulis were bathed in 1 mL sterile phosphate buffered saline (PBS). […] For the opiate receptor antagonist experiments, ganglia were pretreated with naloxone for 10 minutes prior to reticuline addition. NO release was monitored with an NO-selective microprobe manufactured by World Precision Instruments (Sarasota, Fla.). The sensor was positioned approximately 100 μm above the respective tissue surface. […] The NO detection system was calibrated daily. The probe was allowed to equilibrate for 10 minutes in the incubation medium free of tissue before being transferred to vials containing the ganglia for another 5 minutes. Manipulation and handling of the ganglia was only performed with glass instruments. Data was acquired using the Apollo-4000 free radical analyzer (World Precision Instruments, Sarasota, Fla.). The experimental values were then transferred to Sigma-Plot and -Stat (Jandel, Calif.) for graphic representation and evaluation.

NMDA NR1 Subunit = test: NMDA NR1 subunit mRNA expression (RT-PCR); format: cell-based, human
Method: (§6) Isolation of total RNA was performed via RNA MiniPrep Kit (QIAGEN). Concentration of RNA was determined via GeneQuant II Spectrophotometer (Pharmacia Biotech) by multiplying A260 value with dilution factor and nucleic acid constant (0.04). Agarose gel electrophoresis (1%) was used to check for RNA quality.
(§7) RT and PCR reactions were performed in GeneAmp PCR System 9700 (Applied Biosystems) using reverse transcriptase and Taq DNA Polymerase. Forward and reverse gene specific-primers for various subunits of the 20S proteasome and immunoproteasome were either obtained from the literature or designed through Primer Express Software 2.0 (Applied Biosystems) (Table 4). NMDA receptor subunit primers were also designed (Table 4). NMDA receptor expression was used as a marker of neurodegenerative disease.
(§8) All primers were optimized for annealing temperatures and cycles (Table 5). Gel electrophoresis (2% agarose, 0.01% ethidium bromide) was performed and analyzed using a UV transilluminator (UVP) and GelPro Analyzer Software (Applied Biosystems). Relative band intensity was normalized with β-Actin reference gene.

[4] = system: human immune and vascular tissues; test: NO release from human immune and vascular tissues; format: cell-based; settings: morphine 10^−6 M
[5] = system: 20S Proteasome LMP7 Subunit (β5i); test: LMP7 immunoproteasome subunit mRNA expression (RT-PCR); format: cell-based, human
Method: as §6, §7, §8

NMDA NR2B Subunit = test: NMDA NR2B subunit mRNA expression (RT-PCR); format: cell-based, human
Method: as §6, §7, §8

[6] = system: 20S Proteasome X (β5) Subunit; test: 20S proteasome X subunit protein (Western blot); format: cell-based, human
Method: as §1, §2, §3, §4

[7] = system: SK-N-SH neuroblastoma cell line; test: NO release from SK-N-SH neuroblastoma cells; settings: morphine sulfate 5 μM; baseline 2 nM NO
Method: The human SK-N-SH neuroblastoma cell line (ATCC #HTB-11) was used as a cellular model. Cells were propagated in Minimum Essential Medium alpha (MEMα) with 10% fetal bovine serum (FBS), 2% penicillin/streptomycin, 1.5 g/L NaHCO3, and 1.0 mM pyruvic acid. A 5% CO2 incubator (NAPCO) at 37° C. was used for maintenance of temperature and pH. […] When needed, cells were plated in 6- or 12-well plates using a hemocytometer (2×10^5 cells/well in 6-well plates or 1×10^5 cells/well in 12-well plates). Experimental manipulations were performed under sterile conditions under a lamina airflow hood after cells had adhered to the bottom of the plates.

pedal ganglia [8] = test: NO release after daily morphine injections (tolerance); format: in vivo, Mytilus
Method: 45 Mytilus animals were divided into three groups. […] Two hours post-injection, NO release was measured.

[9] = system: 20S Proteasome X Subunit (β5); test: 20S proteasome X subunit mRNA expression (RT-PCR); format: cell-based, human; settings: morphine 5 μM, 24 hours; control 0.716±0.015
Method: as §6, §7, §8

26S proteasome = test: Chymotrypsin activity of the 26S proteasome (fluorometric); format: cell-based, human
Method: as §5

Method for SH-SY5Y cells: At various time points (initial and 1, 2, and 7 days), the cells were washed in phosphate buffered saline (PBS), placed in 250 μL PBS, and assessed for NO release. NO release was measured using an Apollo-4000 free radical analyzer with a 30 μm probe. The probe was calibrated daily with SNAP. Each assay was performed in quadruplicate. The mean±the standard error were graphed for each time point.

CN1CC[C@]23c4c5ccc(O)c4O[C@H]2[C@@H](O)C=C[C@H]3[C@H]1C5 [Morphine, morphine] was tested. Which “down regulation of BACE-1 expression” value (BACE-1; 1 μM morphine) did it give?
Its value is 44%.

And the “down regulation of BACE-1 expression” value (BACE-1; 5 μM morphine)?
Its value is 18%.

What about the “effect on TNF-α-induced death” value (Mytilus animals) of the same compound?
Its value is “reduced the number of animals that died”.

What about the NO release (SH-SY5Y cells; 10^−6 M morphine daily for six days, 10^−6 M on the seventh day) of the same compound?
The NO release was 3.4 nM.

And the NO release (SH-SY5Y cells; morphine 10^−6 M)?
The NO release was 3 to 4 nM.

What about the “Form Factor (FF)” value [1] of the same compound?
The value was 0.58±0.01.

And the free ubiquitin (Ubiquitin; 1 μM morphine, control 44)?
The free ubiquitin was 64 AU.

What about the free ubiquitin (Ubiquitin; 5 μM morphine) of the same compound?
The free ubiquitin was 125 AU.

What about the “BACE-2 expression” value (BACE-2) of the same compound?
Its value is “up regulates the expression of BACE-2”.

What about the NO released (human saphenous veins) of the same compound?
The NO released was 7 ± 2 nM.

And the “20S proteasome activity” value (20S proteasome)?
The value was “decrease in 20S proteasomal function”.

And the “activation of LPS-treated cells” value (immunocytes)?
The value was 19.3±3.8%.

What about the “effect on IFNγ-stimulated LMP7 polypeptide expression” value [2] of the same compound?
The value was “blocked this action”.

What about the “NO Peak Level” value (pedal ganglia [3]; ligand 10^−7 M) of the same compound?
The value was 24.3 ± 3.1 nM.

And the “NO Peak Time” value (pedal ganglia [3]; ligand 10^−7 M)?
Its value is 0.8 ± 0.2 min.

What about the “duration of ganglionic NO release” value (pedal ganglia [3]; reticuline 10^−7 M, morphine 10^−6 M) of the same compound?
Its value is 5 min.

And the NR1 expression (NMDA NR1 Subunit)?
The NR1 expression was 1.40±0.056 AU.

What about the NO release [4] of the same compound?
The NO release was 26 to 29 nM.

And the “LMP7 mRNA expression” value ([5]; 5 μM morphine with rotenone, 24 hours)?
The value was 0.792±0.001 AU.

And the “effect on IFNγ-induced LMP7 mRNA” value ([5]; p<0.034)?
Its value is “blocked the LMP7 increase induced by IFNγ”.

And the NR2B expression (NMDA NR2B Subunit)?
Its NR2B expression is 1.09±0.06 AU and 1.17±0.04 AU.

And the “X subunit protein band intensity” value [6]?
The value was 162 AU and 188 AU and 168 AU and 154 AU.

And the “peak NO release” value [7]?
The value was 22.3 nM.

And the “NO release on day one versus days two, three, and four” value (pedal ganglia [8]; 0.01 μM morphine daily)?
Its value is “level similar”.

And the “NO release after four days versus day one” value (pedal ganglia [8]; 1 μM morphine daily)?
The value was “substantially lower”.

And the “NO release on 10 μM morphine challenge versus one day of 1 μM” value (pedal ganglia [8]; 1 μM morphine for four days)?
The value was “about half”.

What about the “proteasomal X subunit mRNA expression” value [9] of the same compound?
The value was 0.868±0.007 AU.

And the “activity of the chymotrypsin functional 26S active site” value (26S proteasome)?
The value was 277 ± 8.0 pM.
